Laboratory results as given in patent US8097581B2, “Anti-wrinkle cosmetic composition” (Grant Industries Inc., priority 2007, dated 2012).

Experiments:
fibroblast cultures = assay: Total protein production stimulation (method of Skehan et al.); format: cell-based, human; conditions: 10 ng/ml; positive control
Procedure: The stimulation of metabolic activity by RD1071 also translated into an increase of total protein content in fibroblast cultures. […] For example, UV radiation and aging are associated with the increased proteolytic activity in the skin. The stimulation of total protein production could counterbalance the loss of proteins caused by this increased proteolytic activity. Total protein was measured using the method of Skehan et al. (1990). […] The basic fibroblast growth factor, bFGF, was again used as a positive control.

[1] = tested on: human dermal fibroblast cultures; assay: Stimulation of mitochondrial metabolic activity (MTT method); format: cell-based; conditions: 10 ng/ml; positive control
Excerpt: In order to maintain youthful appearance, skin needs to constantly replace and regenerate its damaged components. This is predominantly the role of dermal fibroblasts. How well this job is done depends on the metabolic vigor of these cells as damaged or dormant fibroblasts will not be able to actively produce the replacement parts for the skin. This is why the stimulation of their metabolic activity is viewed as beneficial to the skin, not unlike the stimulation of metabolic activity is beneficial to the muscle. We tested the effect of RD1071 on the metabolic activity of mitochondria of human dermal fibroblast cultures using MTT method (Berridge et al., 1993). Mitochondria are cellular powerhouses producing energy (ATP) for the entire cell. […] Thus, example 1 (RD1071) increases cellular metabolism in a dose-dependant manner. The positive control in this experiment is use of basic fibroblast growth factor, bFGF at 10 ng/ml concentration.

“bFGF: basic fibroblast growth factor, positive control at 10 ng/ml” was tested, and the “Protein Stimulation % Control” value (fibroblast cultures) was 118 % Control and the “Mitochondrial Metabolism % Control” value [1] was 174 % Control.
